Measurements taken from ChEMBL document CHEMBL5518164, “Membrane-permeable tenofovir-di- and monophosphate analogues” (Eur J Med Chem, 2024).
Active and inactive are the calls of the source. No cut-off for these calls is given here.

Key:
[1] = system: Human immunodeficiency virus; test: Substrate activity at HIV reverse transcriptase assessed as n+1 band formation incubated for 30 mins in presence of primer/template mixture and dNTPs by primer extension assay based fluorescence analysis
[2] = Drug metabolism in human CEM/0 cell extracts assessed as gamma-monoalkylated metabolite formation by RP18-HPLC analysis; type: ADME; conditions: ccrf-cem
[3] = Drug metabolism in human CEM/0 cell extracts assessed as Tenofovir diphosphate formation by RP18-HPLC analysis; type: ADME; conditions: ccrf-cem
[4] = Drug metabolism in human CEM/0 cell extracts assessed as Tenofovir monophosphate formation by RP18-HPLC analysis; type: ADME; conditions: ccrf-cem
[5] = Half life of the compound in heparin-stabilized human plasma by HPLC analysis; type: ADME, cell-free
[6] = Cytotoxicity against human CEM cells assessed as inhibition of cell proliferation; type: toxicity, cell-based, CCRF-CEM
[7] = system: Human immunodeficiency virus 2; test: Antiviral activity against HIV-2 ROD infected in wild type human CEM/0 cells assessed as inhibition of virus-induced giant cell formation incubated for 4 to 5 days by light microscopy; type: functional, organism-based; conditions: Human immunodeficiency virus 2, ROD, CCRF-CEM
[8] = Half life of the compound in citrate-containing human plasma by HPLC analysis; type: ADME, cell-free
[9] = Half life of the compound in phosphate buffer saline at pH 7.3 by RP18-HPLC analysis; type: ADME
[10] = system: Human immunodeficiency virus 1; test: Antiviral activity against HIV-1 HE infected in wild type human CEM/0 cells assessed as inhibition of virus-induced giant cell formation incubated for 4 to 5 days by light microscopy; type: functional, organism-based; conditions: Human immunodeficiency virus 1, HE, CCRF-CEM
[11] = Drug metabolism in phosphate buffer saline assessed as gamma-monoalkylated metabolite formation in presence of pig liver esterase at pH 7.3 by RP18-HPLC analysis; type: ADME, Sus scrofa; conditions: isolated protein
[12] = Half life of the compound in phosphate buffer saline in presence of pig liver esterase at pH 7.3 by RP18-HPLC analysis; type: ADME, Sus scrofa
[13] = Drug hydrolysis in phosphate buffer saline incubated for 100 hrs in presence of pig liver esterase at pH 7.3 by RP18-HPLC analysis; type: ADME, Sus scrofa; conditions: read-out: Drug degradation
[14] = system: Human immunodeficiency virus 2; test: Antiviral activity against HIV-2 ROD infected in thymidine kinase deficient human CEM cells assessed as inhibition of virus-induced giant cell formation incubated for 4 to 5 days by light microscopy; type: functional, organism-based; conditions: Human immunodeficiency virus 2, ROD, CCRF-CEM
[15] = Drug metabolism in phosphate buffer saline assessed as Tenofovir diphosphate formation in presence of pig liver esterase at pH 7.3 by RP18-HPLC analysis; type: ADME, Sus scrofa; conditions: isolated protein
[16] = Drug hydrolysis in phosphate buffer saline incubated for 500 hrs at pH 7.3 by RP18-HPLC analysis; type: physicochemical; conditions: read-out: Drug degradation
[17] = Drug hydrolysis in phosphate buffer saline incubated for 600 hrs at pH 7.3 by RP18-HPLC analysis; type: physicochemical; conditions: read-out: Drug degradation
[18] = system: Human immunodeficiency virus 2; test: Potency index, ratio of Tenofovir EC50 to test compound EC50 for antiviral activity against HIV-2 ROD infected in wild type human CEM/0 cells; type: functional
[19] = system: Human immunodeficiency virus 1; test: Potency index, ratio of Tenofovir EC50 to test compound EC50 for antiviral activity against HIV-1 HE infected in wild type human CEM/0 cells; type: functional
[20] = system: Human immunodeficiency virus 2; test: Potency index, ratio of Tenofovir EC50 to test compound EC50 for antiviral activity against HIV-2 ROD infected in thymidine kinase deficient human CEM cells; type: functional
[21] = Drug metabolism in human CEM/0 cell extracts assessed as (R)-9-(2-(phosphonomethoxy)propyl)adenine formation by RP18-HPLC analysis; type: ADME; conditions: ccrf-cem
[22] = Drug metabolism in phosphate buffer saline assessed as (R)-9-(2-(phosphonomethoxy)propyl)adenine formation in presence of pig liver esterase at pH 7.3 by RP18-HPLC analysis; type: ADME, Sus scrofa; conditions: isolated protein

SMILES: CCCCCCCCCCCCCCCCCCP(=O)(OCCCC)OP(=O)(O)OP(=O)(O)CO[C@H](C)Cn1cnc2c(N)ncnc21 (some centres undefined)
- Activity [1]: inactive
- Drug metabolism [2]: Metabolite_Notdetected
- Drug metabolism [3]: Metabolite_Notdetected
- Drug metabolism [4]: Metabolite_Detected
- half-life [5]: > 480 min
- CC50 [6]: 44.6 µM
- EC50 [7]: 62 nM
- half-life [8]: > 480 min
- half-life [9]: > 20.8 days
- EC50 [10]: 78 nM
- Drug metabolism [11]: Metabolite_Notdetected
- half-life [12]: > 4.17 days
- metabolised at 100 h [13]: 16%
- EC50 [14]: 33 nM
- Drug metabolism [15]: Metabolite_Notdetected
- degraded at 500 h [16]: 40%
- degraded at 600 h [17]: 45%

SMILES: CCCCCCCCCCCCCCCCCCOP(=O)(OCCCC)OP(=O)(O)OP(=O)(O)CO[C@H](C)Cn1cnc2c(N)ncnc21 (some centres undefined)
- Activity [1]: Active
- Drug metabolism [4]: Metabolite_Detected
- half-life [5]: > 480 min
- CC50 [6]: 44.3 µM
- EC50 [7]: 19 nM
- half-life [8]: > 480 min
- half-life [9]: 10.7 days
- EC50 [10]: 47 nM
- Drug metabolism [11]: Metabolite_Notdetected
- half-life [12]: > 4.17 days
- metabolised at 100 h [13]: 31%
- EC50 [14]: 12 nM
- Drug metabolism [15]: Metabolite_Notdetected

SMILES: CCCCCCCCCCCCCCCCCCP(=O)(OCCCC)OP(=O)(O)CO[C@H](C)Cn1cnc2c(N)ncnc21 (some centres undefined)
- Ratio EC50 [18]: 567
- Activity [1]: inactive
- half-life [5]: > 300 min
- CC50 [6]: 37.8 µM
- EC50 [7]: 3 nM
- half-life [8]: > 300 min
- half-life [9]: 1.12 days
- EC50 [10]: 35 nM
- half-life [12]: 1 days
- Ratio EC50 [19]: 59
- Ratio EC50 [20]: 326
- EC50 [14]: 2 nM
- Drug metabolism [21]: Metabolite_Detected
- Drug metabolism [22]: Metabolite_Detected
